Melting point data for 31 compounds are collected here from US6855710B2, “Substituted indolines with an inhibitory effect on various kinases and complexes of CDKs” (Boehringer Ingelheim Pharma KG, priority 1998, dated 2005).

Structures are written as SMILES.

A word on the melting point: it is the temperature, or range, at which the solid turns liquid.

Consider `CC(C)(C)OC(=O)NCCc1ccc(N/C(=C2\C(=O)Nc3ccc([N+](=O)[O-])cc32)c2ccc(CN)cc2)cc1` [Example 155, (Z)-3-{1-[4-(2-tert.butoxycarbonylamino-ethyl)-phenylamino]-1-(4-aminomethyl-phenyl)-methylidene}-5-nitro-2-indolinone], for which the melting point was 215 to 217 °C (dec.).
The same measure for `CN(C)CC(=O)Nc1ccc(N/C(=C2\C(=O)Nc3ccccc32)c2ccccc2)cc1` [Example 41, (Z)-3-[1-(4-dimethylaminomethylcarbonylamino-phenylamino)-1-phenyl-methylidene]-2-indolinone]: 234 to 236 °C.
The same measure for `CC(C)C(=O)N(CCN1CCOCC1)c1ccc(N/C(=C2\C(=O)Nc3ccc([N+](=O)[O-])cc32)c2ccccc2)cc1` [Example 336, (Z)-3-{1-[4-(N-(2-morpholinoethyl)-N-isopropylcarbonyl-amino)-phenylamino]-1-phenyl-methylidene}-5-nitro-2-indolinone]: 254 °C; for `CCC(=O)Nc1ccc(N/C(=C2\C(=O)Nc3ccccc32)c2ccccc2)cc1` [Example 39, (Z)-3-[1-(4-propionylamino-phenylamino)-1-phenyl-methylidene]-2-indolinone]: 255 to 256 °C; for `CS(=O)(=O)N(CCN1CCOCC1)c1ccc(N/C(=C2\C(=O)Nc3ccccc32)c2ccccc2)cc1` [Example 189, (Z)-3-{1-[4-(N-(2-morpholinoethyl)-N-methylsulphonyl-amino)-phenylamino]-1-phenyl-methylidene}-2-indolinone]: 249 to 250 °C.
`CN(C)CCN(c1cccc(N/C(=C2\C(=O)Nc3ccccc32)c2ccc(CN)cc2)c1)S(C)(=O)=O` [Example 422, (Z)-3-{1-[3-(N-(2-dimethylaminoethyl)-N-methylsulphonyl-amino)-phenylamino]-1-(4-aminomethyl-phenyl)-methylidene}-2-indolinone] yielded a melting point of 161 °C.
The figure for `CNc1cccc(N/C(=C2\C(=O)Nc3ccccc32)c2ccccc2)c1` [Example 37, (Z)-3-[1-(3-methylamino-phenylamino)-1-phenyl-methylidene]-2-indolinone] is 247 to 248 °C; for `CN(C)CCN(c1ccc(N/C(=C2\C(=O)Nc3ccccc32)c2ccccc2)cc1)S(=O)(=O)Cc1ccccc1` [Example 314, (Z)-3-{1-[4-(N-(2-dimethylaminoethyl)-N-benzylsulphonyl-amino)-phenylamino]-1-phenyl-methylidene}-2-indolinone] it is 244 °C; for `CC(=O)Nc1cccc(N/C(=C2\C(=O)Nc3ccc([N+](=O)[O-])cc32)c2ccccc2)c1` [Example 89, (Z)-3-[1-(3-acetylamino-phenylamino)-1-phenyl-methylidene]-5-nitro-2-indolinone] it is 318 to 320 °C (dec.).
For the compound `CN(C)Cc1ccc(N/C(=C2\C(=O)Nc3ccc([N+](=O)[O-])cc32)c2ccc(Cl)cc2)cc1` [Example 222, (Z)-3-[1-(4-dimethylaminomethyl-phenylamino)-1-(4-chlorophenyl)-methylidene]-5-nitro-2-indolinone], the melting point is 311 °C.
As to `NC(=O)C1CCN(Cc2ccc(N/C(=C3\C(=O)Nc4ccc([N+](=O)[O-])cc43)c3ccccc3)cc2)CC1` [Example 247, (Z)-3-{1-[4-(4-aminocarbonyl-piperidinomethyl)-phenylamino]-1-phenyl-methylidene}-5-nitro-2-indolinone], the melting point was 296 to 297 °C.
The figure for `CC(=O)NCc1ccc(/C(Nc2ccc(N(C)C(=O)CN(C)C)cc2)=C2/C(=O)Nc3ccccc32)cc1` [Example 431, (Z)-3-{1-[4-(N-dimethylaminomethylcarbonyl-N-methyl-amino)-phenylamino]-1-(4-acetylaminomethyl-phenyl)-methylidene}-2-indolinone] is 123 to 125 °C; for `CC(C)(C)OC(=O)NCC(=O)NCc1cccc(N/C(=C2\C(=O)Nc3ccc([N+](=O)[O-])cc32)c2ccccc2)c1` [Example 136, (Z)-3-[1-(3-tert.butoxycarbonylaminomethylcarbonylaminomethyl-phenylamino)-1-phenyl-methylidene]-5-nitro-2-indolinone] it is 228 °C.
Compound `CN(C(=O)CN1CCOCC1)c1ccc(N/C(=C2\C(=O)Nc3ccc([N+](=O)[O-])cc32)c2ccccc2)cc1` [Example 102, (Z)-3-{1-[4-(N-morpholinomethylcarbonyl-N-methyl-amino)-phenylamino]-1-phenyl-methylidene}-5-nitro-2-indolinone] showed a melting point of 293 to 295 °C.
Take `CCOC(=O)CNCc1cccc(N/C(=C2\C(=O)Nc3ccc([N+](=O)[O-])cc32)c2ccccc2)c1` [Example 111, (Z)-3-[1-(3-ethoxycarbonylmethylaminomethyl-phenylamino)-1-phenyl-methylidene]-5-nitro-2-indolinone]: the melting point lay in the range of 130 to 133 °C.
The same measure for `CN(C)C(=O)CN(c1cccc(N/C(=C2\C(=O)Nc3ccccc32)c2ccc(CN)cc2)c1)S(C)(=O)=O` [Example 420, (Z)-3-{1-[3-(N-dimethylaminocarbonylmethyl-N-methylsulphonyl-amino)-phenylamino]-1-(4-aminomethyl-phenyl)-methylidene}-2-indolinone]: 220 °C.
With `CN(C(=O)CNCCN1CCOCC1)c1ccc(N/C(=C2\C(=O)Nc3ccccc32)c2ccccc2)cc1` [Example 373, (Z)-3-{1-[4-(N-(2-morpholinoethylaminomethylcarbonyl)-N-methyl-amino)-phenylamino]-1-phenyl-methylidene}-2-indolinone], the melting point is 117 to 119 °C.
The same measure for `COc1ccc(N/C(=C2\C(=O)Nc3ccccc32)c2ccccc2)cc1` [Example 2, (Z)-3-[1-(4-methoxy-phenylamino)-1-phenyl-methylidene]-2-indolinone]: 267 to 270 °C; for `CCS(=O)(=O)N(CCCN(C)C)c1ccc(N/C(=C2\C(=O)Nc3ccccc32)c2ccccc2)cc1` [Example 316, (Z)-3-{1-[4-(N-(3-dimethylaminopropyl)-N-ethylsulphonyl-amino)-phenylamino]-1-phenyl-methylidene}-2-indolinone]: 194 °C.
In turn, `CCCCS(=O)(=O)N(CCN(C)C)c1ccc(N/C(=C2\C(=O)Nc3ccccc32)c2ccccc2)cc1` [Example 453, (Z)-3-[1-(4-(N-(2-dimethylaminoethyl)-N-butylsulphonyl-amino)-phenylamino)-1-phenyl-methylidene]-2-indolinone] showed a melting point of 225 to 227 °C.
In the case of `CCC(=O)N(CC(=O)O)c1ccc(N/C(=C2\C(=O)Nc3ccccc32)c2ccccc2)cc1` [Example 357, (Z)-3-{1-[4-(N-carboxymethyl-N-propionyl-amino)-phenylamino]-1-phenyl-methylidene}-2-indolinone], the melting point is 270 °C (dec.).
In turn, `CN(C(=O)CN)c1ccc(N/C(=C2\C(=O)Nc3ccc([N+](=O)[O-])cc32)c2ccccc2)cc1` [Example 139, (Z)-3-{1-[4-(N-aminomethylcarbonyl-N-methyl-amino)-phenyl-amino]-1-phenyl-methylidene}-5-nitro-2-indolinone] came in with a melting point of 255 to 256 °C.
For the compound `Cc1cccc(/C(Nc2ccc(CN(C)C)cc2)=C2/C(=O)Nc3ccccc32)c1` [Example 213, (Z)-3-[1-(4-dimethylaminomethyl-phenylamino)-1-(m-tolyl)-methylidene]-2-indolinone], the melting point is 224 to 226 °C.
The same measure for `CC(=O)NCc1ccc(/C(Nc2cccc(N(CC(=O)N(C)C)S(C)(=O)=O)c2)=C2/C(=O)Nc3ccccc32)cc1` [Example 421, (Z)-3-{1-[3-(N-dimethylaminocarbonylmethyl-N-methylsulphonyl-amino)-phenylamino]-1-(4-acetylaminomethyl-phenyl)-methylidene}-2-indolinone]: 194 °C; for `CN(C)CCN(C)S(=O)(=O)c1ccc(N/C(=C2\C(=O)Nc3ccc([N+](=O)[O-])cc32)c2ccccc2)cc1` [Example 402, (Z)-3-{1-[4-(N-(2-dimethylaminoethyl)-N-methyl-aminosulphonyl)-phenylamino]-1-phenyl-methylidene}-5-nitro-2-indolinone]: 215 to 218 °C; for `COCc1cccc(N/C(=C2\C(=O)Nc3ccccc32)c2ccccc2)c1` [Example 5, (Z)-3-[1-(3-methoxymethyl-phenylamino)-1-phenyl-methylidene]-2-indolinone]: 182 to 184 °C.
Consider `CS(=O)(=O)Nc1ccc(N/C(=C2\C(=O)Nc3ccccc32)c2ccccc2)cc1` [Example 185, (Z)-3-[1-(4-methylsulphonylamino-phenylamino)-1-phenyl-methylidene]-2-indolinone], for which the melting point was 299 to 301 °C.
Consider `CC(=O)N(CC(=O)O)c1ccc(N/C(=C2\C(=O)Nc3ccccc32)c2ccccc2)cc1` [Example 353, (Z)-3-{1-[4-(N-carboxymethyl-N-acetyl-amino)-phenylamino]-1-phenyl-methylidene}-2-indolinone], for which the melting point was 276 °C (dec.).
`CN(C)CCN(C)CC(=O)N(C)c1ccc(N/C(=C2\C(=O)Nc3ccccc32)c2ccccc2)cc1` [Example 375, (Z)-3-{1-[4-(N—(N-(2-dimethylaminoethyl)-N-methyl-aminomethylcarbonyl)-N-methylamino)-phenylamino]-1-phenyl-methylidene}-2-indolinone] gave a melting point of 167 to 169 °C.
On to `CCOC(=O)CNC(=O)c1ccc(N/C(=C2\C(=O)Nc3ccccc32)c2ccccc2)cc1` [Example 392, (Z)-3-{1-[4-(ethoxycarbonylmethylaminocarbonyl)-phenylamino]-1-phenyl-methylidene}-2-indolinone], for which the melting point lay in the range of 235 to 237 °C.
The same measure for `O=C1Nc2ccc([N+](=O)[O-])cc2/C1=C(/Nc1ccc(CCN2CCCCC2)cc1)c1ccccc1` [Example 132, (Z)-3-{1-[4-(2-piperidinoethyl)-phenylamino]-1-phenyl-methylidene}-5-nitro-2-indolinone]: 236 to 237 °C.
